Here are results for one molecule from US8658638B2, “Mineralocorticoid receptor antagonist and methods of use” (priority 2009, dated 2014).

SMILES strings stand for the structures. pEC50, pIC50: −log10 of the molar value.

Assay [1] concerns the target T1, human mineralocorticoid receptor (MR) (Homo sapiens, UniProt P08235).
T1 construct: expressed in transfected cells; host or cells: HEK293
T1 sequence (P08235 1-984): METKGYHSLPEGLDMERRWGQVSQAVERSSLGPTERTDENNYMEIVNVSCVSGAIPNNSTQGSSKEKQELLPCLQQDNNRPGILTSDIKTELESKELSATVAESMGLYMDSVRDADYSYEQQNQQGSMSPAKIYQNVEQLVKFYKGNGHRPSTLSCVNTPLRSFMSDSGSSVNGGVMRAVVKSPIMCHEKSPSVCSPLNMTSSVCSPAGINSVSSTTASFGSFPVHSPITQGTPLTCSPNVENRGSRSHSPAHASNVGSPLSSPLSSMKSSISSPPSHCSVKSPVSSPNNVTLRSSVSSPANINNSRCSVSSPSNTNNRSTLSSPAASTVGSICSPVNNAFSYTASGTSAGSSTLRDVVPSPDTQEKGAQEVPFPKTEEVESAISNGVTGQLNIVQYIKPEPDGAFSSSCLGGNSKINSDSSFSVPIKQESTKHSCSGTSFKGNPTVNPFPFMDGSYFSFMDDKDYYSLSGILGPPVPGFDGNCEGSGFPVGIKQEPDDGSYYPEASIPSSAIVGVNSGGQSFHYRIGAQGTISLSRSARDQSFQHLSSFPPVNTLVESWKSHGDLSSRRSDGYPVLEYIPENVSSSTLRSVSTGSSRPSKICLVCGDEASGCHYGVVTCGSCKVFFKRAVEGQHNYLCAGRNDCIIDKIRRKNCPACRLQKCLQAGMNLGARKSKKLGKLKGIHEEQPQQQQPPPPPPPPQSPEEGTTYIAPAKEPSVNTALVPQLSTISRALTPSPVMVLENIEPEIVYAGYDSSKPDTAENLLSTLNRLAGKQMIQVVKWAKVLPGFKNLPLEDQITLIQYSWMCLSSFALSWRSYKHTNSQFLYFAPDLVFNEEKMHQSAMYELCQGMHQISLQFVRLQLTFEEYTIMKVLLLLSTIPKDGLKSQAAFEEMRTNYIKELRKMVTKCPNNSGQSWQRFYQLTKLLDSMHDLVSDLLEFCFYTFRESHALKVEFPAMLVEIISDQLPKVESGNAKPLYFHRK
In words: Nuclear hormone receptor panel screen (luciferase reporter, HEK293), MR. It is filed as cell-based. The source says: Aldosterone exerts it physiological effects through interaction with the mineralocorticoid receptor. Following cytoplasmic binding of aldosterone to MR, the ligand receptor complex translocates to the cell nucleus where it binds to hormone response elements on DNA to initiate expression of target genes. […] The solvents, reagents, and ligands employed in the functional assay are readily available from commercial sources, or can be prepared by one of ordinary skill in the art.
Human embryonic kidney HEK293 cells are transfected with steroid hormone receptor and reporter gene plasmids using a suitable transfection reagent such as Fugene™. […] After 24 hours incubation with test compounds, cells are lysed and luciferase activity is determined using standard techniques.
Data are fitted to a four parameter-fit logistic curve to determine EC50 values. […] IC50 values are determined similarly using antagonist mode assay data. In the antagonist mode, percent inhibitions are determined by comparing test compound activity in the presence of low concentration of agonist (0.08 nM aldosterone for MR, 0.25 nM dexamethasone for GR, 0.66 nM of methyltrienolone for AR, and 0.08 nM of promegestone for PR) to the response produced by the same low concentration of agonist in the absence of test compound.
In general terms: Reporter assays use an easily measured gene product as a stand-in for the process of interest.

Assay [2] deals with uni-nephrectomized Sprague Dawley rats. Briefly: In vivo model of aldosterone mediated hypertension. As to conditions: orally once daily 1-30 mg/kg/day x 14 days, rat. The procedure:
Male uni-nephrectomized Sprague Dawley rats (240-280 g) are housed individually with ad lib house water and rodent 5001 diet for one week. After acclimation, animals are implanted with Alzet pumps to subcutaneously deliver 0.25 μg/h of aldosterone at 2.5 μl/h for up to 28 days, and maintained on a diet containing 6% NaCl and drinking water containing 0.3% KCl throughout the duration of the study. Radiotelemetry devices are also implanted to monitor arterial blood pressure. For example, signals from each animal are sampled every 10 minutes throughout the study. The mean (±SEM) of all values collected over a twenty four hour period represent the mean daily arterial pressure for each animal.
On the day following pump implantation, test compound in a vehicle comprising 1% medium viscosity sodium carboxy methylcellulose/0.25% polysorbate 80/0.05% Antifoam 1510 ™, or vehicle alone, is then administered by once daily oral gavage (10 mL/kg).

By pEC50 is commonly meant −log10 of the EC50, conventionally taken in molar units. High values mean a low EC50, low ones a high EC50. What is called pIC50 is the IC50 on a negative log10 scale, so that one unit is a factor of ten. With `O=c1[nH]c2cc(/C=C3\c4ccccc4COc4cc(F)ccc43)ccc2n1[C@@H]1C[C@@H]2COCCN2C1` [Compound (I), 5-((E)-(3-fluorodibenzo[b,e]oxepin-11(6H)-ylidene)methyl)-1-((7R,8aR)-hexahydro-1H-pyrrolo[2,1-c][1,4]oxazin-7-yl)-1H-benzo[d]imidazol-2(3H)-one], the pEC50 in assay [1] (agonist mode) is below 5.00. Moreover, in assay [1] (antagonist mode, 0.08 nM aldosterone), the negative-log IC50 (pIC50) is around 7.68. Also, the “effect on the hypertensive effects of aldosterone in the presence of salt compared to vehicle” value in assay [2] was “dose dependently reduced the hypertensive effects of aldosterone”.
